PMC10864483, “Iron uptake pathway of Escherichia coli as an entry route for peptide nucleic acids conjugated with a siderophore mimic” (Frontiers in Microbiology, 2024)
Where a SMILES comes first, the peptide text is derived from it. [ ]: non-standard residue; d: D form. Orn(N5-OH,N5-Ac) = CC(=O)N(O)CCC[C@H](N)C(=O)O

Assay: CD spectroscopy of siderophore-iron(III) complexes
Assay type: physicochemical
Details: for Optimal Fe^3+ complex configuration: CD, phosphate buffer pH 7.0, optical isomer Λ or Δ
Description: To elucidate the configuration of the siderophore-iron(III) complexes, we used circular dichroism (CD) spectroscopy where the minimum and maximum with Cotton effect are expected in the range of 350–490 nm ([Winkelmann, 1991]; [Matsumoto et al., 2001]). For the Λ configuration, the minimum band in the CD spectrum should be present before the maximum. Since the Δ configuration is a mirror image of the Λ configuration, the maximum band appears first ([Winkelmann, 1991]). In the presence of the Fe^3+ salt, the natural siderophores and SL solution changed from colorless to yellow after several minutes. This indicates the presence of the siderophore-ferric iron complex and further confirms the metal-binding properties of these compounds ([Winkelmann, 1991]). Based on this observation, during the CD experiments, for every siderophore, we adjusted the incubation time at the optimal concentration, ranging from 40 to 90 min (see Supplementary Figure S1).
Figure 4 CD spectra of the natural (ferrichrome and feroxamine) and synthetic (SL and SC) siderophores with Fe^3+ salt solution in phosphate buffer (pH = 7.0).
CD spectra were recorded in aqueous buffer solution (100 mM phosphate buffer, pH 7.0), in the presence of 4 mM iron(III) salt solution (FeCl3 in the phosphate buffer). To obtain optimal recording conditions, siderophore concentrations were varied in the range 0.24–1.0 mM with an incubation time of 20–90 min (Supplementary Figure S1). In all CD experiments, the siderophore-Fe^3+ molar ratio of 1:1 was maintained. The spectra were collected using the Biokine MOS-450/AF-CD spectrometer equipped with the Xe lamp using a 0.1 cm CD cell. The acquisition duration time was 2 s with a resolution of 1 nm. The measurements were performed in 100 mM phosphate buffer, pH 7.0, room temperature, and wavelength range 300–500 nm. The presented CD spectra were smoothed with the Savitzky–Golay method using GraphPad and are the averages of three scans. Each CD experiment was conducted twice to confirm the repeatability of the spectra.

[1] = siderophore with Fe^3+ salt 1:1, 100 mM phosphate buffer pH 7.0, room temperature, 300-500 nm, average of three scans

Compound | Optimal Fe^3+ complex configuration | CD Wavelength Maximum [1] | CD Wavelength Minimum [1] | Ferric iron binding (CD and color change) (with Fe^3+ salt solution, phosphate buffer pH 7.0)
CC(=O)N([O-])CCCCCNC(=O)CCC(=O)N([O-])CCCCCNC(=O)CCC(=O)N([O-])CCCCCN.[Fe+3] [Feroxamine, feroxamine] | Λ and Δ |  |  | 
CC(=O)N([O-])CCC[C@@H]1NC(=O)CNC(=O)CNC(=O)CNC(=O)[C@H](CCCN([O-])C(C)=O)NC(=O)[C@H](CCCN([O-])C(C)=O)NC1=O.[Fe+3] [Ferrichrome] (cyclo(GGG[Orn(N5-OH,N5-Ac)][Orn(N5-OH,N5-Ac)][Orn(N5-OH,N5-Ac)])) | Λ | 456 nm | 360 nm | 
cyc(Asp-(Orn(Ac,OH))3-Gly-Lys(N3)) (head to tail) [SC, azido-Cyc(Asp-(Orn(Ac‚OH))3-GIy-Lys(N3)), cyclic hydroxamate siderophore mimic] |  | 487 nm |  | cannot bind ferric iron
